PubChem BioAssay (NCI)
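Briefly, cells in 96-well plates were exposed to five compound concentrations for 48 h, and endpoints were estimated by linear interpolation. TGI marks complete inhibition of growth.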

Key:
Assay in all cases: NCI tumour cell line growth inhibition, 48 h
[1] = test system: HOP-62 NSCLC
[2] = test system: M19-MEL melanoma
[3] = test system: SF-539 CNS
[4] = test system: SNB-75 CNS
[5] = test system: P388 leukemia
[6] = test system: RXF 393 renal
[7] = test system: XF 498 CNS
[8] = test system: UACC-257 melanoma
[9] = test system: HOP-92 NSCLC
[10] = test system: OVCAR-3 ovarian
[11] = test system: KM12 colon
[12] = test system: SW-620 colon
[13] = test system: OVCAR-4 ovarian
[14] = test system: SNB-78 CNS
[15] = test system: DMS 273 small cell lung
[16] = test system: SF-268 CNS
[17] = test system: SN12K1 renal
[18] = test system: MCF7 breast
[19] = test system: COLO 205 colon
[20] = test system: OVCAR-5 ovarian
[21] = test system: P388/ADR leukemia
[22] = test system: HL-60(TB) leukemia
[23] = test system: OVCAR-8 ovarian
[24] = test system: U251 CNS
[25] = test system: SF-295 CNS
[26] = test system: DMS 114 small cell lung
[27] = test system: RPMI-8226 leukemia
[28] = test system: SK-OV-3 ovarian
[29] = test system: SK-MEL-28 melanoma
[30] = test system: LOX IMVI melanoma
[31] = test system: UO-31 renal
[32] = test system: SK-MEL-2 melanoma
[33] = test system: K-562 leukemia
[34] = test system: SN12C renal
[35] = test system: CAKI-1 renal
[36] = test system: NCI-H226 lung
[37] = test system: HCC-2998 colon
[38] = test system: SK-MEL-5 melanoma
[39] = test system: A498 renal
[40] = test system: A549 NSCLC
[41] = test system: NCI/ADR-RES ovarian
[42] = test system: NCI-H460 lung
[43] = test system: CCRF-CEM leukemia
[44] = test system: MOLT-4 leukemia
[45] = test system: IGROV1 ovarian
[46] = test system: DLD-1 colon
[47] = test system: HOP-18 NSCLC
[48] = test system: HCT-116 colon
[49] = test system: KM20L2 colon
[50] = test system: SNB-19 CNS
[51] = test system: MALME-3M melanoma
[52] = test system: NCI-H23 lung
[53] = test system: NCI-H522 lung
[54] = test system: HCT-15 colon
[55] = test system: HT29 colon
[56] = test system: UACC-62 melanoma
[57] = test system: EKVX NSCLC

## COC(=O)C1=CC[C@@H]2C(C(=O)O)=CO[C@@H](OC3OC(CO)C(O)C(O)C3O)[C@H]12 (some centres not stated)
[1]
  TGI: > 300 µM
[2]
  TGI: > 300 µM
[3]
  TGI: > 300 µM
[4]
  TGI: > 300 µM
[5]
  TGI: > 300 µM
[6]
  TGI: > 300 µM
[7]
  TGI: > 300 µM
[8]
  TGI: > 300 µM
[9]
  TGI: > 127 µM
[10]
  TGI: > 300 µM
[11]
  TGI: > 300 µM
[12]
  TGI: > 300 µM
[13]
  TGI: > 300 µM
[14]
  TGI: > 178 µM
[15]
  TGI: > 300 µM
[16]
  TGI: > 300 µM
[17]
  TGI: > 300 µM
[18]
  TGI: > 131 µM
[19]
  TGI: > 300 µM
[20]
  TGI: > 300 µM
[21]
  TGI: > 139 µM
[22]
  TGI: > 300 µM
[23]
  TGI: > 300 µM
[24]
  TGI: > 300 µM
[25]
  TGI: > 193 µM
[26]
  TGI: > 300 µM
[27]
  TGI: > 300 µM
[28]
  TGI: > 300 µM
[29]
  TGI: > 300 µM
[30]
  TGI: > 300 µM
[31]
  TGI: > 300 µM
[32]
  TGI: > 300 µM
[33]
  TGI: > 300 µM
[34]
  TGI: > 300 µM
[35]
  TGI: > 300 µM
[36]
  TGI: > 300 µM
[37]
  TGI: > 300 µM
[38]
  TGI: > 288 µM
[39]
  TGI: > 30 µM
[40]
  TGI: > 300 µM
[41]
  TGI: > 300 µM
[42]
  TGI: > 300 µM
[43]
  TGI: > 119 µM
[44]
  TGI: > 300 µM
[45]
  TGI: > 300 µM
[46]
  TGI: > 189 µM
[47]
  TGI: > 300 µM
[48]
  TGI: > 300 µM
[49]
  TGI: > 300 µM
[50]
  TGI: > 300 µM
[51]
  TGI: > 300 µM
[52]
  TGI: > 300 µM
[53]
  TGI: > 300 µM
[54]
  TGI: > 300 µM
[55]
  TGI: > 300 µM
[56]
  TGI: > 300 µM
[57]
  TGI: > 300 µM
